{
  "source": "patent US10039761B2",
  "about": "“Co-crystals and pharmaceutical compositions comprising the same” (Vertex Pharmaceuticals Incorporated, priority 2013, dated 2018)",
  "type_in_all_cases": "cell-based",
  "key": {"H460": {"test_system": "H460", "test": "Combination with genotoxic agents, cell viability (Mixtures Blend)", "set-up": "key to Synergy or Antagonism, Plus Radiation (2 Gy): Plus = enhanced effect of radiation; *: Viability reduction driven predominantly by Compound (1) plus radiation", "conditions": "no agent ticked", "experimental": "(§1) The cell-based experiments and assays were performed with either molecule but not always with both. Compounds (1) and (2) were generally very similar in those assays and experiments. Analysis of the combination experiments was performed using two methods: the Bliss Additivity model and the Mixtures Blend method to determine the degree of synergy, additivity, or antagonism. In the Bliss method, a matrix of Bliss scores was generated for each cell line and treatment, and a sum of the Bliss values over the range of combination concentrations tested was calculated. […] Larger average Bliss values indicate greater confidence in reporting synergy, and smaller scores indicate greater confidence in reporting antagonism. In the Mixtures Blend method combinants were added in a range of optimal ratios using design of experiment (DOE) software (DX-8 from STAT-EASE); the cells were irradiated with 2 Gy as required. Synergy was determined using statistical analysis of the data (ANOVA) to indicate linear (additivity) or statistically significant (p<0.1) non-linear (antagonism or synergy) mixes of the combinants. The following SOC agents were tested in double combinations with Compound (1): etoposide (a topoisomerase inhibitor that induces DSBs), cisplatin (DNA cross-linker), carboplatin (DNA cross-linker), fluorouracil (5-FU, antimetabolite that inhibits thymidylate synthase), paclitaxel (mitotic inhibitor that binds to tubulin), cetuximab (EGFR monoclonal antibody), and radiation. […] These findings were confirmed using the Bliss Additivity model (Table 21). […] While there is not total agreement in the various lines tested, (as detailed in the other sections) the majority agree and the conclusions arrived at are common to each. […] The cancer cell lines in Table 19 indicate: ESO26-gastroesophageal junction cancer, OE19-gastroesophageal junction cancer, […]549-lung cancer, colo205-colon cancer, H460-lung cancer, H2009-lung cancer, FaDu-pharynx cancer, Miapaca2-pancreatic cancer, HFL1-human fetal lung fibroblast."}, "H2009": {"test_system": "H2009", "test": "Combination with genotoxic agents, cell viability (Mixtures Blend)", "set-up": "key to Synergy or Antagonism, Plus Radiation (2 Gy): Plus = enhanced effect of radiation; *: Viability reduction driven predominantly by Compound (1) plus radiation", "conditions": "no agent ticked", "experimental": "as §1"}, "FaDu": {"test_system": "FaDu", "test": "Combination with genotoxic agents, cell viability (Mixtures Blend)", "set-up": "key to Synergy or Antagonism, Plus Radiation (2 Gy): Plus = enhanced effect of radiation; *: Viability reduction driven predominantly by Compound (1) plus radiation", "experimental": "as §1"}, "A549": {"test_system": "A549", "test": "Combination with genotoxic agents, cell viability (Mixtures Blend)", "set-up": "key to Synergy or Antagonism, Plus Radiation (2 Gy): Plus = enhanced effect of radiation; *: Viability reduction driven predominantly by Compound (1) plus radiation", "experimental": "as §1"}, "OE19": {"test_system": "OE19", "test": "Combination with genotoxic agents, cell viability (Mixtures Blend)", "experimental": "as §1"}, "DMS-53": {"test_system": "DMS-53", "test": "Combination with genotoxic agents, cell viability (Mixtures Blend)", "conditions": "with Cisplatin and Etoposide", "experimental": "as §1"}, "Colo205": {"test_system": "Colo205", "test": "Combination with genotoxic agents, cell viability (Mixtures Blend)", "conditions": "with Cisplatin and 5-FU", "experimental": "as §1"}, "HCC-1395": {"test_system": "HCC-1395", "test": "Doxorubicin combination in triple negative breast cancer cells", "conditions": "Compound (2) with doxorubicin; plating density 5000; BRCA mutant", "experimental": "(§2) The cell-based experiments and assays were performed with either molecule but not always with both. Compounds (1) and (2) were generally very similar in those assays and experiments. Analysis of the combination experiments was performed using two methods: the Bliss Additivity model and the Mixtures Blend method to determine the degree of synergy, additivity, or antagonism. In the Bliss method, a matrix of Bliss scores was generated for each cell line and treatment, and a sum of the Bliss values over the range of combination concentrations tested was calculated. […] Larger average Bliss values indicate greater confidence in reporting synergy, and smaller scores indicate greater confidence in reporting antagonism. In the Mixtures Blend method combinants were added in a range of optimal ratios using design of experiment (DOE) software (DX-8 from STAT-EASE); the cells were irradiated with 2 Gy as required. Synergy was determined using statistical analysis of the data (ANOVA) to indicate linear (additivity) or statistically significant (p<0.1) non-linear (antagonism or synergy) mixes of the combinants."}, "MDA-MB-436": {"test_system": "MDA-MB-436", "test": "Doxorubicin combination in triple negative breast cancer cells", "conditions": "Compound (2) with doxorubicin, BRCA mutant", "experimental": "as §2"}, "HCC-1937": {"test_system": "HCC-1937", "test": "Doxorubicin combination in triple negative breast cancer cells", "conditions": "Compound (2) with doxorubicin, BRCA mutant", "experimental": "as §2"}, "MDA-MB-468": {"test_system": "MDA-MB-468", "test": "Doxorubicin combination in triple negative breast cancer cells", "conditions": "Compound (2) with doxorubicin, BRCA wild-type", "experimental": "as §2"}, "HCC-1599": {"test_system": "HCC-1599", "test": "Doxorubicin combination in triple negative breast cancer cells", "conditions": "Compound (2) with doxorubicin; plating density unknown; BRCA mutant", "experimental": "as §2"}, "[1]": {"test_system": "ESO26 (GEJ) cancer cell line", "test": "Combination with genotoxic agents, viability (Mixtures analysis)", "conditions": "single agent IC50 on which the mixtures were based", "experimental": "as §2"}, "[2]": {"test_system": "DU4475 breast cancer line", "test": "Doxorubicin or epirubicin combination in DU4475 cells", "conditions": "Doxorubicin or epirubicin in combination with Compound (2)", "method": "The cell-based experiments and assays were performed with either molecule but not always with both. […] Analysis of the combination experiments was performed using two methods: the Bliss Additivity model and the Mixtures Blend method to determine the degree of synergy, additivity, or antagonism. In the Bliss method, a matrix of Bliss scores was generated for each cell line and treatment, and a sum of the Bliss values over the range of combination concentrations tested was calculated. […] Larger average Bliss values indicate greater confidence in reporting synergy, and smaller scores indicate greater confidence in reporting antagonism. In the Mixtures Blend method combinants were added in a range of optimal ratios using design of experiment (DOE) software (DX-8 from STAT-EASE); the cells were irradiated with 2 Gy as required. Synergy was determined using statistical analysis of the data (ANOVA) to indicate linear (additivity) or statistically significant (p<0.1) non-linear (antagonism or synergy) mixes of the combinants."}},
  "note": "Entries after “also recorded” stand apart in the source; their conditions may differ.",
  "data": [
    {"smiles": "CNC(=O)c1ccnc2c([C@H](C)CNc3cc(-c4cnc(C)nc4)ncn3)cccc12", "note": "[Compound (1), (S)-N-methyl-8-(1-((2′-methyl-[4,5′-bipyrimidin]-6-yl)amino)propan-2-yl)quinoline-4-carboxamide]", "values": [
      {"measurement": "Synergy or Antagonism, No Radiation", "setting": "H460", "value": "Synergy"},
      {"measurement": "Synergy or Antagonism, Plus Radiation (2 Gy)", "setting": "H460", "value": "Plus"},
      {"measurement": "Synergy or Antagonism, No Radiation", "setting": "H2009", "value": "Additivity"},
      {"measurement": "Synergy or Antagonism, Plus Radiation (2 Gy)", "setting": "H2009", "value": "Plus"},
      {"measurement": "Synergy or Antagonism, No Radiation", "setting": "FaDu; no agent ticked", "value": "Synergy"},
      {"measurement": "Synergy or Antagonism, Plus Radiation (2 Gy)", "setting": "FaDu; no agent ticked", "value": "Plus"},
      {"measurement": "Synergy or Antagonism, No Radiation", "setting": "FaDu; with Cetuximab", "value": "Additivity"},
      {"measurement": "Synergy or Antagonism, Plus Radiation (2 Gy)", "setting": "FaDu; with Cetuximab", "value": "Additivity, Plus"},
      {"measurement": "Synergy or Antagonism, No Radiation", "setting": "A549; no agent ticked", "value": "Synergy"},
      {"measurement": "Synergy or Antagonism, Plus Radiation (2 Gy)", "setting": "A549; no agent ticked", "value": "Plus"},
      {"measurement": "Synergy or Antagonism, No Radiation", "setting": "A549; with Cetuximab", "value": "Additivity"},
      {"measurement": "Synergy or Antagonism, Plus Radiation (2 Gy)", "setting": "A549; with Cetuximab", "value": "Additivity, Plus"},
      {"measurement": "Synergy or Antagonism, No Radiation", "setting": "A549; with Cisplatin", "value": "Additivity"},
      {"measurement": "Synergy or Antagonism, No Radiation", "setting": "A549; with Cisplatin and Etoposide", "value": "Strong Synergy"},
      {"measurement": "Synergy or Antagonism, Plus Radiation (2 Gy)", "setting": "A549; with Cisplatin and Etoposide", "value": "Strong Synergy, Plus"},
      {"measurement": "Synergy or Antagonism, No Radiation", "setting": "A549; with Cisplatin and Paclitaxel", "value": "additive; also recorded: Additivity"},
      {"measurement": "Synergy or Antagonism, Plus Radiation (2 Gy)", "setting": "A549; with Cisplatin and Paclitaxel", "value": "Synergy, Plus"},
      {"measurement": "Synergy or Antagonism, No Radiation", "setting": "A549; with Etoposide", "value": "Strong Synergy"},
      {"measurement": "Synergy or Antagonism, No Radiation", "setting": "A549; with Paclitaxel", "value": "Antagonism"},
      {"measurement": "Synergy or Antagonism, No Radiation", "setting": "OE19; with 5-FU", "value": "Additivity"},
      {"measurement": "Synergy or Antagonism, Plus Radiation (2 Gy)", "setting": "OE19; with 5-FU", "value": "Synergy*, Plus"},
      {"measurement": "Synergy or Antagonism, No Radiation", "setting": "OE19; with Carboplatin", "value": "Antagonism"},
      {"measurement": "Synergy or Antagonism, Plus Radiation (2 Gy)", "setting": "OE19; with Carboplatin", "value": "Synergy*, Plus"},
      {"measurement": "Synergy or Antagonism, No Radiation", "setting": "OE19; with Cisplatin and Paclitaxel", "value": "Mix"},
      {"measurement": "Synergy or Antagonism, Plus Radiation (2 Gy)", "setting": "OE19; with Cisplatin and Paclitaxel", "value": "Synergy, Plus"},
      {"measurement": "Synergy or Antagonism, No Radiation", "setting": "DMS-53", "value": "Strong Synergy"},
      {"measurement": "Synergy or Antagonism, No Radiation", "setting": "Colo205", "value": "synergistic; also recorded: Synergy"},
      {"measurement": "Synergy or Antagonism, Plus Radiation (2 Gy)", "setting": "Colo205", "value": "Synergy, Plus"}
    ]},
    {"smiles": "[2H]c1nc(C)nc([2H])c1-c1cc(NC[C@@H](C)c2cccc3c(C(=O)NC)ccnc23)ncn1", "note": "[Compound (2), (S)-N-methyl-8-(1-((2′-methyl-4′,6′-dideutero-[4,5′-bipyrimidin]-6-yl)amino)propan-2-yl)quinoline-4-carboxamide]", "values": [
      {"measurement": "Average Bliss score", "setting": "HCC-1395", "value": 11.1},
      {"measurement": "Average Bliss score", "setting": "MDA-MB-436; plating density 5000", "value": 14.5},
      {"measurement": "Average Bliss score", "setting": "MDA-MB-436; plating density 20000", "value": 14.4},
      {"measurement": "Average Bliss score", "setting": "HCC-1937; plating density 5000", "value": 16.6},
      {"measurement": "Average Bliss score", "setting": "HCC-1937; plating density 20000", "value": 15.6},
      {"measurement": "Average Bliss score", "setting": "MDA-MB-468; plating density 5000", "value": 23.1},
      {"measurement": "Average Bliss score", "setting": "MDA-MB-468; plating density 20000", "value": 24.7},
      {"measurement": "Average Bliss score", "setting": "HCC-1599", "value": 14.3},
      {"measurement": "IC50", "setting": "[1]", "value": 20, "unit": "µM"},
      {"measurement": "Bliss analysis, combination effect", "setting": "[2]", "value": "strong synergy (greater than 10 indicates strong synergy)"}
    ]}
  ]
}
